Measured values reported in US20230286973A1, “PROTEIN SECRETION INHIBITORS” (KEZAR LIFE SCIENCES, priority 2020, published 2023).

Assays:
[1] = tested on: multiple myeloma cell line NCI-H929; test: H929 Cell Viability Assay; assay type: cell-based, human; conditions: Homo sapiens, NCI-H929, 48 h, NCI-H929 cells, Celltiter-Glo
Summary of the method: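 NCI-H929 cells in RPMI 1640 with 10% FBS were treated with compound dilutions for 48 h at 37° C, 5% CO2. Viability was read by CellTiter-Glo luminescence. Undefined stereocentres denote stereoisomer mixtures.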

[2] = tested on: IL-2-FL/Gaussia Luciferase; test: Dox Induced IL2-FL-Gluc Assay; assay type: cell-based; conditions: for IC50: 24 hr Dox induction, 293FRT/TO cells, read-out: 24 hr Dox Inducible IL2FLGluc 293FRT/TO: Mean IC50; for 24 hr Dox Inducible IL2FLGluc 293FRT/TO: IL2/PD1: ratio of IL2FLGluc IC50 to PD1ssGluc IC50
Summary of the method: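 Stable Flp-In 293 T-REx cells carrying doxycycline-inducible full-length IL-2 (aa 1-153) fused to Gaussia luciferase, plated the day before assay. Compound dilutions added in medium containing doxycycline, incubated at 37 °C, 5% CO2. Undefined stereocentres mean data refer to stereoisomer mixtures.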

[3] = tested on: TNFα-FL/Gaussia Luciferase; test: Dox Induced TNFα-FL-Gluc Assay; assay type: cell-based; conditions: for IC50: 24 hr Dox induction, 293FRT/TO cells, read-out: 24 hr Dox Inducible TNFaFLGluc 293FRT/TO: Mean IC50; for 24 hr Dox Inducible TNFaFLGluc 293FRT/TO: TNF/PD1: ratio of TNFaFLGluc IC50 to PD1ssGluc IC50
Summary of the method: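 Flp-In 293 T-REx cells stably carrying doxycycline-inducible full-length TNFα (aa 1-233) fused to Gaussia luciferase. Plated the day before, then treated with compound dilutions in doxycycline-containing medium at 37° C, 5% CO2.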

[4] = tested on: PD1-ss+10aa/Gaussia Luciferase; test: Dox-Induced PD1-ss-Gluc Assay; assay type: cell-based; conditions: 24 hr Dox induction; 293FRT/TO cells; read-out: 24 hr Dox Inducible PD1ssGluc 293FRT/TO: Mean IC50
Summary of the method: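 Flp-In 293 T-REx, stable line; Tet-regulated PD1-ss+10aa fused to Gaussia luciferase; plated day prior; cpd + doxycycline in DMSO/media; 37 °C, 5% CO2.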

[5] = Liver Microsome Stability Assay (mouse); conditions: mouse liver microsomes, with NADPH, 1.0 uM compound
Description: (§1) Stability of a compound was assessed in the presence of liver microsomes from various sources—mouse, rat, monkey and human liver microsomes. 1.0 uM compound, 0.4% DMSO in 0.1 M Potassium Phosphate with 1.0 mg/mL liver microsomes, were incubated at 37° C. with or without 1 mM NADPH. The samples were quenched at 0, and 30 minutes.

[6] = tested on: HER3-ss+4aa/Gaussia Luciferase; test: Dox-Induced Her3-ss-Gluc Assay; assay type: cell-based; conditions: 24 hr Dox induction; 293FRT/TO cells; read-out: 24 hr Dox Inducible Her3(ss + 4)Gluc 293FRT/TO: Mean IC50
Summary of the method: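 Stable Flp-In 293 T-REx cells carried a doxycycline-inducible HER3 signal sequence (+4 aa) fused to Gaussia luciferase. Cells were plated the day before the assay. Compound dilutions in DMSO/media containing doxycycline were then added, and plates were incubated at 37 °C, 5% CO2.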

[7] = tested on: multiple myeloma cell line U266B1; test: U266 Cell Viability Assay; assay type: cell-based, human; conditions: Homo sapiens, U-266, 48 h, U266B1 cells, Celltiter-Glo
Summary of the method: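 U266B1 multiple myeloma cells in RPMI 1640/10% FBS were treated with compound dilutions for 48 h at 37 °C, 5% CO2. Viability was measured by CellTiter-Glo luminescence; compounds drawn without stereochemistry were tested as stereoisomer mixtures.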

[8] = Liver Microsome Stability Assay (monkey); conditions: monkey liver microsomes, with NADPH, 1.0 uM compound
Description: as §1

[9] = Liver Microsome Stability Assay (human); conditions: human liver microsomes, with NADPH, 1.0 uM compound
Description: as §1

[10] = Liver Microsome Stability Assay (rat); conditions: rat liver microsomes, with NADPH, 1.0 uM compound
Description: as §1

| EC50 [1] | IC50 [2] | IC50 [3] | IC50 [4] | Liver Microsome Stability (Multiple Species): Mouse - % Remaining after 30 min w/NADPH [5] | IC50 [6] | EC50 [7] | Liver Microsome Stability (Multiple Species): Monkey - % Remaining after 30 min w/NADPH [8] | Liver Microsome Stability (Multiple Species): Human - % Remaining after 30 min w/NADPH [9] | Liver Microsome Stability (Multiple Species): Rat - % Remaining after 30 min w/NADPH [10] | Compound | 24 hr Dox Inducible IL2FLGluc 293FRT/TO: IL2/PD1 [2] | 24 hr Dox Inducible TNFaFLGluc 293FRT/TO: TNF/PD1 [3] |
| --- | --- | --- | --- | --- | --- | --- | --- | --- | --- | --- | --- | --- |
| > 25 µM | > 25 µM | > 25 µM | 0.119 µM | 0.32% | > 25 µM | > 25 µM | 0.04% | 0.01% | 0.28% | CCn1cnc(/C=C/c2csc(NC(=O)c3cccn3Cc3ccncc3)n2)c1 [Compound B69, (E)-N-(4-(2-(1-ethyl-1H-imidazol-4-yl)vinyl)thiazol-2-yl)-1-(pyridin-4-ylmethyl)-1H-pyrrole-2-carboxamide] | >210 | >209 |
| 5.29 µM | 5.36 µM | 9.97 µM | 0.418 µM | 3.41% | 4.08 µM | 5.49 µM | 0.13% | 0.44% | 0.43% | CC(C)n1ccc(/C=C/c2csc(NC(=O)c3cccn3Cc3ccnc(F)c3)n2)n1 [Compound B74, (E)-1-((2-fluoropyridin-4-yl)methyl)-N-(4-(2-(1-isopropyl-1H-pyrazol-3-yl)vinyl)thiazol-2-yl)-1H-pyrrole-2-carboxamide] | 13 | 23.9 |
| 7.16 µM | 17.1 µM | 10.3 µM | 0.446 µM | 0.94% | 5.67 µM | 6.75 µM | 0.23% | 2.26% | 0.27% | CC(C)n1ccc(/C=C/c2csc(NC(=O)c3cccn3Cc3ccncc3)n2)n1 [Compound B75, (E)-N-(4-(2-(1-isopropyl-1H-pyrazol-3-yl)vinyl)thiazol-2-yl)-1-(pyridin-4-ylmethyl)-1H-pyrrole-2-carboxamide] | 38 | 23 |
| > 25 µM | > 25 µM | > 25 µM | 0.419 µM | 0.37% | 1.6 µM | > 25 µM | 0.25% | 0.76% | 0.52% | CC(C)c1cccc2nc(/C=C/c3csc(NC(=O)c4cccn4Cc4ccncc4)n3)cn12 [Compound B76, (E)-N-(4-(2-(5-isopropylimidazo[1,2-a]pyridin-2-yl)vinyl)thiazol-2-yl)-1-(pyridin-4-ylmethyl)-1H-pyrrole-2-carboxamide] | >60 | >59.6 |

Continued, molecule first:

| Compound | EC50 [1] | IC50 [2] | IC50 [3] | IC50 [4] | Liver Microsome Stability (Multiple Species): Mouse - % Remaining after 30 min w/NADPH [5] | IC50 [6] | EC50 [7] | Liver Microsome Stability (Multiple Species): Monkey - % Remaining after 30 min w/NADPH [8] | Liver Microsome Stability (Multiple Species): Human - % Remaining after 30 min w/NADPH [9] | Liver Microsome Stability (Multiple Species): Rat - % Remaining after 30 min w/NADPH [10] | 24 hr Dox Inducible IL2FLGluc 293FRT/TO: IL2/PD1 [2] | 24 hr Dox Inducible TNFaFLGluc 293FRT/TO: TNF/PD1 [3] |
| --- | --- | --- | --- | --- | --- | --- | --- | --- | --- | --- | --- | --- |
| CC(C)c1nc(/C=C/c2csc(NC(=O)c3cccn3Cc3ccnc(F)c3)n2)cn1C [Compound B67, (E)-1-((2-fluoropyridin-4-yl)methyl)-N-(4-(2-(2-isopropyl-1-methyl-1H-imidazol-4-yl)vinyl)thiazol-2-yl)-1H-pyrrole-2-carboxamide] | 21 µM | 19.1 µM | > 25 µM | 5.37 µM | 2.2% | 18.5 µM | 19.7 µM | 0.13% | 0.16% | 1.32% | 3.6 | >4.66 |
| CC(C)n1cnc(/C=C/c2csc(NC(=O)c3cccn3Cc3cc(F)nc(F)c3)n2)c1 [Compound B68, (E)-1-((2,6-difluoropyridin-4-yl)methyl)-N-(4-(2-(1-isopropyl-1H-imidazol-4-yl)vinyl)thiazol-2-yl)-1H-pyrrole-2-carboxamide] | 10.1 µM | > 25 µM | > 25 µM | 0.348 µM | 14% | 18.2 µM | 14.6 µM | 0.07% | 0.5% | 19.9% | >72 | >71.9 |
| Cc1cccc2nc(/C=C/c3csc(NC(=O)c4cccn4Cc4ccnc(F)c4)n3)cn12 [Compound B70, (E)-1-((2-fluoropyridin-4-yl)methyl)-N-(4-(2-(5-methylimidazo[1,2-a]pyridin-2-yl)vinyl)thiazol-2-yl)-1H-pyrrole-2-carboxamide] | > 25 µM | > 25 µM | > 25 µM | 0.499 µM | 2.19% | > 25 µM | > 25 µM | 0.19% | 0.35% | 1.37% | >50 | >50.1 |
| O=C(Nc1nc(/C=C/c2cn3c(n2)CCC3)cs1)c1cccn1Cc1ccncc1 [Compound B71, (E)-N-(4-(2-(6,7-dihydro-5H-pyrrolo[1,2-a]imidazol-2-yl)vinyl)thiazol-2-yl)-1-(pyridin-4-ylmethyl)-1H-pyrrole-2-carboxamide] | > 25 µM | > 25 µM | > 25 µM | 0.298 µM | 0.16% | > 25 µM | > 25 µM | 0.03% | 0.03% | 0.1% | >84 | >83.9 |
| CC(C)c1nc(/C=C/c2csc(NC(=O)c3cccn3Cc3ccncc3)n2)cn1C [Compound B72, (E)-N-(4-(2-(2-isopropyl-1-methyl-1H-imidazol-4-yl)vinyl)thiazol-2-yl)-1-(pyridin-4-ylmethyl)-1H-pyrrole-2-carboxamide] | > 25 µM | > 25 µM | > 25 µM | 7.15 µM | 0.03% | 10.6 µM | > 25 µM | 0.06% | 0.95% | 0.16% | >3.5 | >3.50 |
| CC(C)c1cccc2nc(/C=C/c3csc(NC(=O)c4cccn4Cc4ccnc(F)c4)n3)cn12 [Compound B73, (E)-1-((2-fluoropyridin-4-yl)methyl)-N-(4-(2-(5-isopropylimidazo[1,2-a]pyridin-2-yl)vinyl)thiazol-2-yl)-1H-pyrrole-2-carboxamide] | > 25 µM | > 25 µM | > 25 µM | 0.486 µM | 1.62% | > 25 µM | > 25 µM | 0.48% | 0.81% | 3.87% | >51 | >51.4 |
